pIC50: −log10 of the molar value.
Experiments:
[1] = molecular target: T1, Interleukin-1 receptor-associated kinase 4 (Homo sapiens, UniProt Q9NWZ3); assay: Inhibition of IRAK4 (unknown origin) by Z-LYTE enzymatic kinase assay
T1 sequence (Q9NWZ3 whole entry): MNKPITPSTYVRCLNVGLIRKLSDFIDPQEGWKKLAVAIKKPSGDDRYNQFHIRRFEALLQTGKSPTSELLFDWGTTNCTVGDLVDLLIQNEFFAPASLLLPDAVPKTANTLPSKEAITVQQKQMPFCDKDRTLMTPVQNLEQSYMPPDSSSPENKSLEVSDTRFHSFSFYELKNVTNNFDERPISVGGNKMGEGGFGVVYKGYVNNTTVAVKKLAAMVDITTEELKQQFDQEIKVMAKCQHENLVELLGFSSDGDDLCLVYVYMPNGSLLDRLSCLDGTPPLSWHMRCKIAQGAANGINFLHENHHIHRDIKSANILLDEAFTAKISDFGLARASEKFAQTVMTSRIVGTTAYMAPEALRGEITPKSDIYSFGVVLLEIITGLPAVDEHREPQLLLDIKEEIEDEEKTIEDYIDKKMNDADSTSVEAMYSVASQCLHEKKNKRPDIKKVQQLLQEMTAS

OCI-Ly10 = assay: Cytotoxicity against human OCILY10 cells assessed as inhibition of cell proliferation incubated for 72 hrs by CCK-8 assay; assay type: functional, cell-based; details: OCI-Ly10, 72 h
U2932 = assay: Cytotoxicity against human U2932 cells assessed as inhibition of cell proliferation incubated for 72 hrs by CCK-8 assay; assay type: functional, cell-based; details: U2932, 72 h
[2] = Cytotoxicity against human GM00637 cells assessed as inhibition of cell proliferation incubated for 72 hrs by CCK-8 assay; assay type: toxicity, cell-based

| SMILES | pIC50 [1] | pIC50 (OCI-Ly10) | pIC50 (U2932) | IC50 at 72 h [2] |
| --- | --- | --- | --- | --- |
| CC1(C)Cc2cc(NC(=O)c3cnn4cccnc34)c(N3CCC(CO)CC3)cc2O1 | 8.54 | 4.91 |  |  |
| CC1(C)Cc2cc(NC(=O)c3coc(-c4ccnc(N)c4)n3)c(N3CCOCC3)cc2O1 | 8.59 | 6.96 | 6.74 | 0.312 µM |
| CC1(C)Cc2cc(NC(=O)c3coc(-c4ccnc(N)c4)n3)c(-c3ccoc3)cc2O1 | 7.99 | 6.40 | 5.61 | > 50 µM |
| Cc1noc(C)c1-c1cc2c(cc1NC(=O)c1coc(-c3ccnc(N)c3)n1)CC(C)(C)O2 | < 7.00 |  |  |  |
| CC1(C)Cc2cc(NC(=O)c3cccc(-c4ccc(N)nc4)n3)c(N3CCC(CO)CC3)cc2O1 | < 7.00 |  |  |  |
| CC1(C)Cc2cc(NC(=O)c3coc(-c4ccnc(N)c4)n3)c(-c3cncnc3)cc2O1 | 7.90 | 6.17 | 5.68 | 4.63 µM |
| Cc1cc(-c2cc3c(cc2NC(=O)c2coc(-c4ccnc(N)c4)n2)CC(C)(C)O3)cc(C)n1 | < 7.00 |  |  |  |
| CC1(C)Cc2cc(NC(=O)c3cccc(-c4ccnc(N)c4)n3)c(N3CCC(CO)CC3)cc2O1 | < 7.00 |  |  |  |
| CC1(C)Cc2cc(NC(=O)c3coc(N4CCC[C@@H](N)C4)n3)c(N3CCC(CO)CC3)cc2O1 | < 7.00 |  |  |  |
| CC1(C)Cc2cc(NC(=O)c3cccc(N4CC[C@@H](N)C4)n3)c(N3CCC(CO)CC3)cc2O1 | < 7.00 |  |  |  |
| Cc1ccc(-c2cc3c(cc2NC(=O)c2coc(-c4ccnc(N)c4)n2)CC(C)(C)O3)cn1 | 7.89 | 5.50 | < 4.30 | > 50 µM |
| CC1(C)Cc2cc(NC(=O)c3cccc(N4CCC[C@@H](N)C4)n3)c(N3CCC(CO)CC3)cc2O1 | < 7.00 |  |  |  |
| CC1(C)Cc2cc(NC(=O)c3coc(-c4ccnc(N)c4)n3)c(N3CCC(CO)CC3)cc2O1 | 8.68 | 6.47 |  |  |
| Cc1ncc(-c2cc3c(cc2NC(=O)c2coc(-c4ccnc(N)c4)n2)CC(C)(C)O3)cn1 | 7.85 | 6.08 | 5.29 | > 50 µM |

Second part, led by results:

| pIC50 [1] | SMILES | pIC50 (OCI-Ly10) | pIC50 (U2932) | IC50 at 72 h [2] |
| --- | --- | --- | --- | --- |
| 7.57 | COc1ccc(-c2cc3c(cc2NC(=O)c2coc(-c4ccnc(N)c4)n2)CC(C)(C)O3)cn1 |  |  |  |
| < 7.00 | CC1(C)Cc2cc(NC(=O)c3coc(-c4ccnc(N)c4)n3)c(-c3ccnc(C#N)c3)cc2O1 |  |  |  |
| 7.94 | CC1(C)Cc2cc(NC(=O)c3coc(-c4ccnc(N)c4)n3)c(N3CCN(CC(N)=O)CC3)cc2O1 |  |  |  |
| 7.66 | CC1(C)Cc2cc(NC(=O)c3coc(-c4ccncc4)n3)c(N3CCC(CO)CC3)cc2O1 |  |  |  |
| 7.20 | CC(=O)Nc1cc(-c2nc(C(=O)Nc3cc4c(cc3N3CCC(CO)CC3)OC(C)(C)C4)co2)ccn1 |  |  |  |
| < 7.00 | Cc1cc(-c2nc(C(=O)Nc3cc4c(cc3N3CCC(CO)CC3)OC(C)(C)C4)co2)ccn1 |  |  |  |
| 7.61 | CC(C)n1cc(-c2cc3c(cc2NC(=O)c2coc(-c4ccnc(N)c4)n2)CC(C)(C)O3)cn1 |  |  |  |
| < 7.00 | CC1(C)Cc2cc(NC(=O)c3coc(-c4ccnc(N)c4)n3)c(-c3ccnc(C(F)(F)F)c3)cc2O1 |  |  |  |
| 7.73 | CCn1cc(-c2cc3c(cc2NC(=O)c2coc(-c4ccnc(N)c4)n2)CC(C)(C)O3)cn1 |  |  |  |
| 7.55 | CC1(C)Cc2cc(NC(=O)c3coc(-c4ccnc(N)c4)n3)c(N3CCC(C(N)=O)CC3)cc2O1 |  |  |  |
| 7.49 | CC1(C)Cc2cc(NC(=O)c3coc(-c4ccnc(N)c4)n3)c(N3CCC(O)CC3)cc2O1 |  |  |  |
| 7.38 | CC1(C)Cc2cc(NC(=O)c3coc(-c4ccnc(N)c4)n3)c(-c3ccc(C#N)nc3)cc2O1 |  |  |  |
| 7.18 | CC1(C)Cc2cc(NC(=O)c3coc(N4CC[C@@H](N)C4)n3)c(N3CCC(CO)CC3)cc2O1 |  |  |  |
| 8.21 | CC1(C)Cc2cc(NC(=O)c3cnn4cccnc34)c(N3CCOCC3)cc2O1 |  |  |  |
| 7.13 | Cn1cc(-c2cccc(C(=O)Nc3cc4c(cc3N3CCC(CO)CC3)OC(C)(C)C4)n2)cn1 |  |  |  |
| 8.13 | CC1(C)Cc2cc(NC(=O)c3coc(-c4ccnc(N)c4)n3)c(N3CCN(CCO)CC3)cc2O1 |  |  |  |
| 7.22 | CC1(C)Cc2cc(NC(=O)c3coc(-c4ccnc(N)c4)n3)c(N3CCC(C(C)(C)O)CC3)cc2O1 |  |  |  |
| 7.85 | CC1(C)Cc2cc(NC(=O)c3coc(-c4ccnc(N)c4)n3)c(N3CCC(CN)CC3)cc2O1 |  |  |  |
| 7.64 | COc1cc(-c2cc3c(cc2NC(=O)c2coc(-c4ccnc(N)c4)n2)CC(C)(C)O3)ccn1 |  |  |  |
| 7.60 | CC1(C)Cc2cc(NC(=O)c3coc(-c4ccnc(N)c4)n3)c(-c3ccc(C(F)(F)F)nc3)cc2O1 |  |  |  |
| 7.52 | Cc1cc(-c2cc3c(cc2NC(=O)c2coc(-c4ccnc(N)c4)n2)CC(C)(C)O3)ccn1 |  |  |  |
